# Read-outs that look alike come from different tables or passages of the source.
# Experiments:
# [1] = Pharmacokinetics of teliso‐v conjugate and MMAE, noncompartmental; format: in vivo, human; settings: for AUCinf, conjugate / Cmax, conjugate: geometric mean (%CV); for t1/2, conjugate: harmonic mean (min-max); for Tmax, conjugate: median (min-max)
# Description: PK samples were also collected on cycles 2 and 4 predose and approximately 30 minutes after the end of infusion on day 1. PK parameters such as peak concentration (Cmax), time to peak concentration, area under the concentration‐time curve (AUC), and terminal half‐life (t1/2) were determined using noncompartmental methods.
# [2] = test system: advanced solid tumors; assay: Preliminary antitumor activity, RECIST version 1.1; format: in vivo, human; settings: for PFS estimate at 6 months / Median PFS / Median duration of overall response / PFS estimate at 9 months: [95% CI]; for Median PFS: Kaplan–Meier
# Source text: Evaluation of tumor response to determine the objective response rate (ORR), progression‐free survival (PFS), and duration of response was based on RECIST version 1.1 criteria.
# All data were summarized and tabulated by dose cohort. Categoric data were summarized in terms of frequency counts and percentages. Continuous data were summarized using descriptive statistics, including number of observations, mean, standard deviation, median, minimum, and maximum. No formal statistical analysis was performed for efficacy variables, which were all exploratory in nature. ORR was defined as the proportion of patients with a confirmed partial response (PR) or complete response (CR). Duration of response was defined as time from a patient's initial objective response to the first date of disease progression (PD) or death. The overall disease control rate was defined as the proportion of patients with CR, PR, or stable disease (SD). […] PFS was estimated using the Kaplan–Meier method. Efficacy analyses are presented with two‐sided exact 95% binomial CI.
# [3] = test system: advanced solid tumors; settings: cited from earlier work
# [4] = first administration, cycle 1, across 2.4 and 2.7 mg/kg
# [5] = total, N = 9, listed as telisotuzumab vedotin
# [6] = total, N = 9, listed as teliso-v
substance,measurement,setting,value
"Teliso‐v: antibody‐drug conjugate: anti–c‐Met humanized monoclonal antibody ABT‐700 coupled to monomethyl auristatin E through a valine‐citrulline linker, drug:antibody ratio approximately three",Dose proportionality of systemic exposure,"[1]; 2.4 and 2.7 mg/kg, cycle 1",approximately dose proportional
same,t1/2,"[1]; N = 9, both dose levels",72 to 96 h
same,"AUCinf, conjugate","[1]; cycle 1, 2.4 mg/kg IV, n = 3",4437 (19) µg*h/mL
same,"Cmax, conjugate","[1]; cycle 1, 2.4 mg/kg IV, n = 3",55.5 (26) µg/mL
same,"t1/2, conjugate","[1]; cycle 1, 2.4 mg/kg IV, n = 3",4.18 (3.8–4.7) days
same,"Tmax, conjugate","[1]; cycle 1, 2.4 mg/kg IV, n = 3",1 (1–1) h
same,"AUCinf, conjugate","[1]; cycle 1, 2.7 mg/kg IV, n = 6",5202 (23) µg*h/mL
same,"Cmax, conjugate","[1]; cycle 1, 2.7 mg/kg IV, n = 6",63.0 (22) µg/mL
same,"t1/2, conjugate","[1]; cycle 1, 2.7 mg/kg IV, n = 6",2.91 (2.5–3.9) days
same,"Tmax, conjugate","[1]; cycle 1, 2.7 mg/kg IV, n = 6",1 (1–1) h
same,"AUC from zero to infinity, preliminary geometric mean",[1]; [4],"4,400–5,200 µg*h/ml"
same,"Serum Cmax, preliminary geometric mean",[1]; [4],55.5 to 63.0 µg/mL
same,Accumulation in cycle 3,[1]; multiple dosing Q3 W,1.1–1.2 fold
same,Complete response,"[2]; 2.4 mg/kg Q3W, n = 3",0 n (%)
same,Disease control rate,"[2]; 2.4 mg/kg Q3W, n = 3",3 (100) [NA] n (%) [95% CI]
same,Objective response rate,"[2]; 2.4 mg/kg Q3W, n = 3",0 n (%)
same,Partial response,"[2]; 2.4 mg/kg Q3W, n = 3",0 n (%)
same,Progressive disease,"[2]; 2.4 mg/kg Q3W, n = 3",0 n (%)
same,Stable disease,"[2]; 2.4 mg/kg Q3W, n = 3",3 (100) n (%)
same,PFS estimate at 6 months,"[2]; 2.4 mg/kg Q3W, n = 3",33.3 [0.9–77.4] %
same,Median PFS,"[2]; 2.4 mg/kg Q3W, n = 3",4.1 [2.8–7.1] months
same,Complete response,"[2]; 2.7 mg/kg Q3W, n = 6",0 n (%)
same,Objective response rate,"[2]; 2.7 mg/kg Q3W, n = 6",2 (33) n (%)
same,Partial response,"[2]; 2.7 mg/kg Q3W, n = 6",2 (33) n (%)
same,Progressive disease,"[2]; 2.7 mg/kg Q3W, n = 6",1 (17) n (%)
same,Stable disease,"[2]; 2.7 mg/kg Q3W, n = 6",3 (50) n (%)
same,Median duration of overall response,"[2]; 2.7 mg/kg Q3W, n = 6",8.2 [7.2–9.1] months
same,PFS estimate at 6 months,"[2]; 2.7 mg/kg Q3W, n = 6",83.3 [27.3–97.5] %
same,PFS estimate at 9 months,"[2]; 2.7 mg/kg Q3W, n = 6",83.3 [27.3–97.5] %
same,Median PFS,"[2]; 2.7 mg/kg Q3W, n = 6",10.4 [1.2–12.0] months
same,Patients with PD,[2]; N = 9,one
same,Patients with SD,[2]; N = 9,six
same,Patients with PR,"[2]; N = 9, both at 2.7‐mg/kg (urothelial, ovarian cancer)",Two
same,Reduction of sum of the tumor size,"[2]; single patient, 27 weeks after teliso-v initiation",73%
same,Sum of the tumor size,"[2]; single patient, lung metastasis, 27 weeks after teliso-v initiation, baseline 64.4 mm",17.3 mm
same,Patients with reduction in tumor size from baseline,"[2]; thymic cancer, NSCLC, ovarian cancer, urothelial cancer",Four
same,Complete response,"[2]; total, N = 9",0 n (%)
same,Objective response rate,"[2]; total, N = 9",2 (22) n (%)
same,Overall disease control rate,"[2]; total, N = 9",89%
same,PFS estimate at 6 months,"[2]; total, N = 9",64.0 [23.8–86.6] %
same,PFS estimate at 9 months,"[2]; total, N = 9",48.0 [12.3–76.9] %
same,Median PFS,"[2]; total, N = 9",7.1 [1.2–10.4] months
same,Median PFS,[2]; [5],7.1 months
same,Median duration of overall response,[2]; [6],8.2 [7.2–9.1] months
same,Median duration of overall response,"[2]; total, N = 9, listed as teliso‐v",8.2 months
same,Partial response,[2]; [6],2 (22) n (%)
same,Progressive disease,[2]; [6],1 (11) n (%)
same,Stable disease,[2]; [6],6 (67) n (%)
same,Partial response,[2]; [5],22%
same,Progressive disease,[2]; [5],11%
same,Stable disease,[2]; [5],67%
same,Tolerability,[3]; 2.7 mg/kg Q3 W,well tolerated
same,Patients with PR,[3]; c‐Met‐positive NSCLC,three of 14
same,Recommended phase 2 dose (RP2D),"[3]; every 3 weeks, preceding phase 1 study outside of Japan",2.7 mg/kg
same,Frequency of corneal epithelium disorder,"[3]; non‐Japanese patients, nine of 116, teliso‐v monotherapy, ref data on file",7.8%

# Reference: article PMC7982615, “Phase 1 study of telisotuzumab vedotin in Japanese patients with advanced solid tumors” (Cancer Medicine, 2021)
